Test results as given in US20210052679A1, “PROBIOTIC DELIVERY OF GUIDED ANTIMICROBIAL PEPTIDES” (priority 2019, published 2021).

B1: MM1-CRAMP (protein)
chain: MQKMTDQVNYQAMKLTLLQKSGGGSISRLAGLLRKGGEKIGEKLKKIGQKIKNFFQKLVPQPE
modifications: MM1-CRAMP gAMP
B2: MM1-Laterosporulin (protein)
chain: MQKMTDQVNYQAMKLTLLQKSGGGSACQCPDAISGWTHTDYQCHGLENKMYRHVYAICMNGTQVYCRTEWGSSC
modifications: MM1-laterosporulin gAMP

What was measured:
[1] = test system: Staphylococcus aureus and Staphylococcus epidermidis; experiment: In vitro bactericidal activity assay, targeted staphylococci; format: cell-based; settings: S. aureus and S. epidermidis
Description: The Ulp-1 protease-cleaved proteins were tested for antimicrobial assays against four strains of bacteria: Staphylococcus aureus, Staphylococcus epidermidis, Enterococcus faecalis and Bacillus subtilis. These four species were selected because they are gram positive and the AMPs plectasin and eurocin are specifically active against gram positive bacteria (Mygind et al. 2005, Oeemig et al. 2012). The component controls were free SUMO protein and synthetically produced A12C peptide. Vancomycin was used as the positive control. The standard protocol for a microtiter plate assay with serial dilution was used in which serial 2-fold dilutions of test peptide were made across a 96-well plate containing uniform bacterial inoculum across the peptide dilutions. After bacterial growth in the presence of peptide, cell viability was assayed with resazurin. Experiments with all peptides against all bacterial species were performed with >5 replicates each.

H. pylori [2] = experiment: L. lactis/H. pylori co-culture and qPCR on VacA gene; format: cell-based, Helicobacter pylori; settings: 24 h co-culture with L. lactis expressing AMP/gAMP; FIG. 10
Description: In the co-cultures, different dilutions of L. lactis were used but each well had 10 μl of H. pylori culture (˜3000 CFUs). The L. lactis secreted AMP, gAMP or contained an empty expression vector. Alyteserin and CRAMP were the AMPs tested. These were constructed either genetically fused to the multimerin-derived guide peptide (guide AMP or gAMP) or not (AMP). The amount of H. pylori present in the co-culture at any given time point was measured by qPCR, using primers specific for the VacA gene itself, which codes for the receptor protein to which the gAMP binds. The entire experiment was run in triplicate and the growth of H. pylori after 24 h in the presence of L. lactis expressing various AMPs or gAMPs is shown in FIG. 10.
L. lactis AMP/gAMP clones were propagated from glycerol stocks and grown in GM17 broth overnight with erythromycin (5 μg/ml) with no shaking. H. pylori stocks were first propagated on Blood-TS agar overnight with microaerobic condition and >5% CO2 environment. Then colonies from the plate were transferred to a TS broth with newborn calf serum (5%) and grown overnight under microaerobic condition and >5% CO2 environment. The L. lactis cultures were serially diluted in a 96-well culture plate with TSB broth to make up a volume of 100 μL. To each well, 10 μL of the overnight H. pylori culture was added and each well volume was brought up to 200 μL with more TS broth. The plate was left to grow overnight in a microaerobic environment with >5% CO2. After 24 h, well contents from the culture plate were transferred to a 96-well PCR plate. […] The qPCR was done using primers for VacA gene to quantify H. pylori (forward: 5′-[…]-3′ (SEQ ID NO:12), reverse: 5′-[…]-3′ (SEQ ID NO:13) and primers for acma gene for quantifying L. lactis. Standard curves for H. pylori and L. lactis were constructed by determining CT values for different dilutions of the overnight cultures of the respective bacteria (1/10, 1/100, 1/1000, 1/10000) in the qPCR plates, the CFUs for the dilutions were determined by plating on their respective agar plates.

H. pylori [3] = experiment: Therapeutic control of H. pylori in mice (qPCR of stomach fluid); format: in vivo, mouse; settings: at Day 10, within each AMP/gAMP pair
From the text: These mice were inoculated with H. pylori and the H. pylori was allowed to establish itself in the mouse stomach for 3 days, with daily inoculations to ensure establishment. The mice were then given L. lactis secreting AMP or gAMP to therapeutically treat the H. pylori infection. Stomach samples were collected on Day 0 before H. pylori inoculation; resuspended H. pylori were fed by oral gavage once daily for 3 consecutive days; stomach samples were then collected on Day 5 to test for H. pylori presence and on Day 5 resuspended L. lactis were fed to the mice; subsequent stomach samples were collected on Day 8 and 10.
(§1) The L. lactis cultures were propagated overnight as described above. The overnight cultures were spun down at 4000 g for 15 min at 4° C. The pellets were resuspended in sterile PBS. H. pylori stocks were grown overnight on Blood-TS agar as described above and then scraped by a sterile loop and resuspended in sterile PBS. The either bacterial suspension were fed to the mice using 1.5 ga oral gavage needle not exceeding half their stomach volume (˜250 μL). The colony forming units (CFUs) of the resuspension being fed were determined by diluting the resuspension 1/1000 and 1/10000 times and plating on appropriate plates. Pre- and post-inoculation samples from the mouse stomach were collected by flushing their stomach with excess PBS (˜300 μL) and the stomach fluid was collected by reversing the oral gavage injection until the vacuum was maintained.
(§2) The supernatants were collected and plated in a 96-well plate and qPCR was performed with primers for the VacA gene to quantify for H. pylori and primers for the acma gene to quantify for L. lactis. Standard curves for each bacterium against their CT values were constructed by including different dilutions of the overnight cultures of the respective bacteria (1/10, 1/100, 1/1000, 1/10000) in the qPCR and plating those dilutions on respective plates to determine the corresponding CFU values. Each data point represents at least 3 replicate mice.
This was used to generate CFU/μl data from qPCR CT values in FIG. 14.

H. pylori [4] = experiment: Prophylactic control of H. pylori in mice (qPCR of stomach fluid); format: in vivo, mouse; settings: Day 12; probiotic pre-treatment before H. pylori challenge; FIG. 15
Description: as §1
as §2, with “mice. […]” for “mice.”

E. coli = E. coli viability with supernatants of Lactococcus lactis broth cultures; format: cell-based, Escherichia coli; settings: L. lactis culture supernatant, 4 hours of exposure; FIG. 8
From the text: This is reported in FIG. 8 as the survival of E. coli in the presence of broth culture of Lactococcus lactis secreting antimicrobial peptide with or without a guide peptide. […] It should be noted that the legend is in reverse order of the lines, top to bottom, with the upper line in the graph being the buffer control and the lower line being vancomycin. To obtain the results shown in FIG. 8, cultures of Lactococcus lactis containing either the empty pT1bin1 vector, pT1bin1 harboring the antimicrobial peptide laterosporulin, or pT1bin1 harboring laterosporulin genetically fused to the guide peptide from multimerin were centrifuged to remove bacterial cells and the resulting supernatants were added to separate starter cultures of E. coli to check for inhibition of E. coli growth. The starter culture used supplying all replicates consisted of 500 μl of overnight culture of E. coli diluted in 50 ml of LB broth. […] E. coli viability was measured by plating onto LB agar plates the cultures in each well after 4 hours of exposure to supernatant or antibiotic. The resulting colonies appearing on the plates were recorded, with the undiluted buffer control treatment being set to 100% and all other treatments being converted to a fraction of this value, as plotted on the y-axis.

Lactobacillus plantarum = experiment: Off-target co-culture with L. lactis, qPCR; format: cell-based; settings: 24 hours; probiotic at 100,000/μl CFU level; FIG. 11
Description: L. lactis AMP/gAMP clones were propagated from glycerol stocks and grown in GM17 broth overnight with erythromycin (5 μg/ml) with no shaking. H. pylori stocks were first propagated on Blood-TS agar overnight with microaerobic condition and >5% CO2 environment. Then colonies from the plate were transferred to a TS broth with newborn calf serum (5%) and grown overnight under microaerobic condition and >5% CO2 environment. The L. lactis cultures were serially diluted in a 96-well culture plate with TSB broth to make up a volume of 100 μL. To each well, 10 μL of the overnight H. pylori culture was added and each well volume was brought up to 200 μL with more TS broth. The plate was left to grow overnight in a microaerobic environment with >5% CO2. After 24 h, well contents from the culture plate were transferred to a 96-well PCR plate. That PCR plate was sealed and heated for 15 min at 100° C. and chilled at 4° C. for 5 min. Then the plate was centrifuged at 2000 g for 2 min and the supernatant was used as the template for qPCR. The qPCR was done using primers for VacA gene to quantify H. pylori (forward: 5′-[…]-3′ (SEQ ID NO:12), reverse: 5′-[…]-3′ (SEQ ID NO:13) and primers for acma gene for quantifying L. lactis. Standard curves for H. pylori and L. lactis were constructed by determining CT values for different dilutions of the overnight cultures of the respective bacteria (1/10, 1/100, 1/1000, 1/10000) in the qPCR plates, the CFUs for the dilutions were determined by plating on their respective agar plates.
The experimental design was identical to that described above in Example 3, with the exception of the off-target bacterium replacing the targeted H. pylori. The off-target bacteria used were Lactobacillus plantarum (gram positive) and Escherichia coli (gram negative).

Molecule	H. pylori in co-culture (qPCR on VacA gene) (H. pylori [2])	more H. pylori with the AMP versus the gAMP (H. pylori [3])	Lactobacillus plantarum level after co-culture (Lactobacillus plantarum)	further results
A12C-plectasin	–	–	–	toxicity/activity against targeted staphylococci [1]: highly active
Alyteserin (GLKDIFKAGLGSLVKGIAAHVAN; alyteserin AMP)	not very effective unless fused to the guide peptide	15 fold	–	H. pylori in mouse stomach fluid (H. pylori [4]): 2000 CFU/μl
CRAMP (ISRLAGLLRKGGEKIGEKLKKIGQKIKNFFQKLVPQPE; cathelin-related anti-microbial peptide (CRAMP))	equally toxic	15 fold	–	–
Laterosporulin (ACQCPDAISGWTHTDYQCHGLENKMYRHVYAICMNGTQVYCRTEWGSSC; laterosporulin AMP)	–	2.5 fold	–	viability of E. coli vs empty vector baseline (E. coli): significant decrease in viability
MM1-Alyteserin (MQKMTDQVNYQAMKLTLLQKSGGGSGLKDIFKAGLGSLVKGIAAHVAN; MM1-alyteserin gAMP)	–	–	10,000 CFU/μl	H. pylori in mouse stomach fluid (H. pylori [4]): 1500 CFU/μl
B1	equally toxic	–	2500 CFU/μl	–
B2	–	–	10,000 CFU/μl	viability of E. coli vs empty vector baseline (E. coli): no significant difference
